Like-named read-outs stand apart in the source and are kept apart here.
Assays:
cyclo-oxygenase = target: T1, cyclo-oxygenase (Bos taurus, UniProt O62664); assay: Inhibition of biosynthesis of prostaglandins in vitro (microsomal preparation of seminal vesicules); type: biochemical, bulls
T1 construct: a cyclo-oxygenase contained in a microsomal preparation of seminal vesicules of bulls; from tissue; host or cells: bull seminal vesicles, microsomal preparation
T1 sequence (O62664 25-600): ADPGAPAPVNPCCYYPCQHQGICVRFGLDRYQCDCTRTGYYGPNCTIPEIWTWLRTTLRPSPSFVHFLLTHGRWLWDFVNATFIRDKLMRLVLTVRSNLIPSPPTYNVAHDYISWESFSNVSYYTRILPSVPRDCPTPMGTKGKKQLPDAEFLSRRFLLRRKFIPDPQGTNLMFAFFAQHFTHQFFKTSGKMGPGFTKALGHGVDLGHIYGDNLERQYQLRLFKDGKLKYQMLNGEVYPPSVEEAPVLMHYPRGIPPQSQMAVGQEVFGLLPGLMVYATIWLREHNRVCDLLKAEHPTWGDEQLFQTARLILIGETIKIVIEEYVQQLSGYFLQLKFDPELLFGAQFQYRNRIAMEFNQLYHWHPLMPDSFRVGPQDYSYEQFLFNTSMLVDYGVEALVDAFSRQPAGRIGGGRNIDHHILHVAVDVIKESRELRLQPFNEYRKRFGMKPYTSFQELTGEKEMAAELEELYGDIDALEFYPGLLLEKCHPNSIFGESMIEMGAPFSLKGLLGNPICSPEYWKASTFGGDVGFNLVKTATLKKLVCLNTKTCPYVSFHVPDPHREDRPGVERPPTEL
Procedure: B. Inhibition of biosynthesis of prostaglandins in vitro
Arachidonic acid is converted into prostaglandins (PGs) of the […] by a cyclo-oxygenase contained in a microsomal preparation of seminal vesicules of bulls by the method of Tagekuchi et al [Biochemistry, Vol. 10 (1971), P. 2372]. The precursor at a concentration of 15×10^-6 M was incubated in the presence of a fixed concentration of proteins of the seminal vesicule preparation and the test product at 37° C. for 30 minutes. The reaction was stopped by immersion into boiling water for one minute and then centrifugation. The prostaglandins were determined by radio-immunoassay by the procedure of Dray et al [European J. Clin. Invest., Vol. 5 (1975), p. 311] to specifically evaluate for PGE2 and PGF2 α. The CI50 dose or dose that inhibited the activity by 50% was calculated for each of the two prostaglandins and was 2×10^-5 M for the compound of Example 1.

[1] = tested on: adjuvant arthritis (rear paw volume increase); assay: Anti-inflammatory activity, adjuvant arthritis (preventive treatment); type: in vivo; settings: Rattus norvegicus; male rats, oral, day 0 to day 17, Freund type adjuvant; read-out: DA50 (dose that diminished by 50% the volume increase of the rear paws)
Procedure: A. Anti-inflammatory Activity-adjuvant arthritis (preventive treatment)
The injection of Freund type adjuvant into the rear paw of a rat provokes the rapid appearance of a primary inflammatory lesion in that paw and then after a latent period of 13 to 15 days, the appearance of a secondary arthritic condition occurs in the other rear paw The test was performed on male rats about 40 to 50 days old who received an intraplantary injection of 0.1 ml of Freund type adjuvant (suspension of 6 mg per ml of dead mycobacterium butyrium in vaseline oil). The rats received the test compound orally on day 0 (day of injection of adjuvant) until the day before they were killed (day 17). […] The activity of the test compounds was determined by the increase in the injected rear paw volume (primary and secondary inflammation) and the non-injected rear paw (secondary inflammation) as compared to the average volume of the corresponding paws of the arthritic control animals. The DA50 or the dose that diminished by 50% the volume increase of the rear paws of the treated animals as compared to the control animals was determined to be 8 mg/kg for the compound of Example 1.

5-lipoxygenase = target: T2, 5-lipoxygenase (Rattus norvegicus, UniProt P12527); assay: Dosage of 5-lipoxygenase of rat neutrophiles (Leucotriene B4 by radioimmunoassay); type: cell-based; settings: rat peritoneal neutrophiles, 10 μM ionophore A 23187, Leucotriene B4; read-out: CI50 5-lipoxygenase
T2 construct: Dosage of 5-lipoxygenase of rat neutrophiles; endogenous in cells; host or cells: rat peritoneal neutrophils elicited with sodium caseinate
T2 sequence (P12527 1-673): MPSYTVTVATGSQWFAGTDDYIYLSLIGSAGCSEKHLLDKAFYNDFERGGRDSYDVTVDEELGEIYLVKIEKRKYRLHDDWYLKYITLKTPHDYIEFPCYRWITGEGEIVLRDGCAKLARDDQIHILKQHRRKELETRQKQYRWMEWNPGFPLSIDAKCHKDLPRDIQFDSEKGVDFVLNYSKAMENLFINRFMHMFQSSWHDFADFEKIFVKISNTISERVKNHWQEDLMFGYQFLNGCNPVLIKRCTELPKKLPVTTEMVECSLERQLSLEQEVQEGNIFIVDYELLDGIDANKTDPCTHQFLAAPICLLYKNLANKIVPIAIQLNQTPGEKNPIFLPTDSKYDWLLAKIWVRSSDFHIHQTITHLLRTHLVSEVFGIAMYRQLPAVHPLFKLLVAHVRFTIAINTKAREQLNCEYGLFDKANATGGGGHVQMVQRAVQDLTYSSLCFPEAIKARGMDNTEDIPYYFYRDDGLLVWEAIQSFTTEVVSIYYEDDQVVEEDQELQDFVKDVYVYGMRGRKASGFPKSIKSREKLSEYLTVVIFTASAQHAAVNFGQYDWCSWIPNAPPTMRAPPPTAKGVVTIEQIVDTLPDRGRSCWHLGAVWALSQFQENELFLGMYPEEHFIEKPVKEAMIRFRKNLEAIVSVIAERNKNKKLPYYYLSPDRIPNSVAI
Procedure: 3. Dosage of 5-lipoxygenase of rat neutrophiles
Peritoneal neutrophile (5×10^6 cells/ml) obtained after intraperitoneal injection of 12% sodium caseinate were preincubated at 37° C. for 5 minutes in the presence of the test product or solvent used. The incubation was effected under the same conditions in the presence of 10 μM of ionophore A 23187 and […] of calcium chloride. After 5 minutes, the incubates were placed in ice and centrifuged at 3000 g.

IC50 (cyclo-oxygenase; arachidonic acid 15×10^-6 M, 37° C., 30 minutes, PGE2 and PGF2 α by radio-immunoassay, read-out: CI50 (dose that inhibited the activity by 50%), for each of PGE2 and PGF2 α) [µM] | IC50 (5-lipoxygenase) [µM] | IC50 (cyclo-oxygenase; table value, read-out: CI50 cyclooxygenase) [µM] | Structure (SMILES) | ED50 [1] [mg/kg]
20 | 10 |  | CC(C(=O)O)c1cc2c(s1)C1(CCCCC1)CC2 (stereo not drawn) [Example 1, 4',5'-dihydro-α'-methyl-spiro[cyclohexane-1,6']-6H-[cyclopenta (b)thiophene]-2'-acetic acid] | 8
 | 0.5 | 200 | CC(C(=O)N(C)O)c1cc2c(s1)C1(CCCCC1)CC2 (stereo not drawn) [Example 4, 4',5'-dihydro-α',N-dimethyl-N-hydroxy-spiro[cyclohexane-1,6']-6H-[cyclopenta (b)thiophene]-2-acetamide] | 
